Data as given in article PMC11345841, “Exploring 2-Sulfonylpyrimidine Warheads as Acrylamide Surrogates for Targeted Covalent Inhibition: A BTK Story” (Journal of Medicinal Chemistry, 2024).
Like-named read-outs stand apart in the source and are kept apart here.

Tests used:
[1] = molecular target: T1, ABL1(M351T)-phosphorylated (Homo sapiens, UniProt P00519, M351T); assay: KINOMEscan ScanTK; format: binding
T1 construct: purchased Eurofins DiscoverX KINOMEscan (scanTK)

TIE2 = molecular target: T2, TIE2 (Homo sapiens, UniProt Q02763); assay: KINOMEscan ScanTK; format: binding
T2 construct: purchased Eurofins DiscoverX KINOMEscan (scanTK)

ALK = molecular target: T3, ALK (Homo sapiens, UniProt Q9UM73); assay: KINOMEscan ScanTK; format: binding
T3 construct: purchased Eurofins DiscoverX KINOMEscan (scanTK)

[2] = molecular target: JAK3, catalytic domain (795–1124) (Homo sapiens, UniProt P52333); assay: PhosphoSens enzymatic IC50 (AssayQuant)
Excerpt: Biochemical enzymatic IC50 data were generated by AssayQuant Technologies (Marlborough, MA) using the PhosphoSens Platform. […] Reaction rate versus log [inhibitor concentration] data were fitted to the four-parameter logistic equation [drawing 1]

VEGFR2 = molecular target: T4, VEGFR2 (Homo sapiens, UniProt P35968); assay: KINOMEscan ScanTK; format: binding
T4 construct: purchased Eurofins DiscoverX KINOMEscan (scanTK)

EPHA5 = molecular target: T5, EPHA5 (Homo sapiens, UniProt P54756); assay: KINOMEscan ScanTK; format: binding
T5 construct: purchased Eurofins DiscoverX KINOMEscan (scanTK)

LYN = molecular target: T6, LYN (Homo sapiens, UniProt P07948); assay: KINOMEscan ScanTK; format: binding
T6 construct: purchased Eurofins DiscoverX KINOMEscan (scanTK)

ALK(C1156Y) = molecular target: T7, ALK(C1156Y) (Homo sapiens, UniProt Q9UM73, C1156Y); assay: KINOMEscan ScanTK; format: binding
T7 construct: purchased Eurofins DiscoverX KINOMEscan (scanTK)

EPHA6 = molecular target: T8, EPHA6 (Homo sapiens, UniProt Q9UF33); assay: KINOMEscan ScanTK; format: binding
T8 construct: purchased Eurofins DiscoverX KINOMEscan (scanTK)
T8 sequence (Q9UF33 23-1036): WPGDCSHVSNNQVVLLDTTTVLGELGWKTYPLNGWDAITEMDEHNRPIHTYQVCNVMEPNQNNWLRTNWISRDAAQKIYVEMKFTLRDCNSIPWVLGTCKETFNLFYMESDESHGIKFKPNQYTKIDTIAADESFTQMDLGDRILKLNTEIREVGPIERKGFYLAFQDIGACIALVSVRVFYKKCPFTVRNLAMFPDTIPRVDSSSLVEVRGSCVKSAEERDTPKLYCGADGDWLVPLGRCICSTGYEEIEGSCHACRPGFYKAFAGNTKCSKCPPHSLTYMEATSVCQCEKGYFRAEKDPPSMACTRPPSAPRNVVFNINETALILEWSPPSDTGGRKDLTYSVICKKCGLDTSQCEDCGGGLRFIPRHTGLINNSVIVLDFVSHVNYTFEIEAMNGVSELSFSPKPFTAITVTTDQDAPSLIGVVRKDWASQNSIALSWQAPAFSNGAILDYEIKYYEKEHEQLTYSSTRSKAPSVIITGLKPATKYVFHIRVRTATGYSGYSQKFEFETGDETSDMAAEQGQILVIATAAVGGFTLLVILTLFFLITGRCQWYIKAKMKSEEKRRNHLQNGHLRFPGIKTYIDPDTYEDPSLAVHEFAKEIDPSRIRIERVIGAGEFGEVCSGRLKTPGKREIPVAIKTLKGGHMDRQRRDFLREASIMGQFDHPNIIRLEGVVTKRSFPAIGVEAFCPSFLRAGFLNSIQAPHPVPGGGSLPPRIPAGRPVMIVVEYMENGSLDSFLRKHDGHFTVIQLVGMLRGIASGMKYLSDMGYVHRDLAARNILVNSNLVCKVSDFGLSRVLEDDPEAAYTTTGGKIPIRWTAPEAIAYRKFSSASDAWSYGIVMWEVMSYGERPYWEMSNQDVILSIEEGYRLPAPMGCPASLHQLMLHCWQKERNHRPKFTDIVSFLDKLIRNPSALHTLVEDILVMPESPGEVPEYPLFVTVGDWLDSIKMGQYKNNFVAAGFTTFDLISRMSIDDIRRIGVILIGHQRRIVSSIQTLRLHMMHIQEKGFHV

EPHB4 = molecular target: T9, EPHB4 (Homo sapiens, UniProt P54760); assay: KINOMEscan ScanTK; format: binding
T9 construct: purchased Eurofins DiscoverX KINOMEscan (scanTK)
T9 sequence (P54760 16-987): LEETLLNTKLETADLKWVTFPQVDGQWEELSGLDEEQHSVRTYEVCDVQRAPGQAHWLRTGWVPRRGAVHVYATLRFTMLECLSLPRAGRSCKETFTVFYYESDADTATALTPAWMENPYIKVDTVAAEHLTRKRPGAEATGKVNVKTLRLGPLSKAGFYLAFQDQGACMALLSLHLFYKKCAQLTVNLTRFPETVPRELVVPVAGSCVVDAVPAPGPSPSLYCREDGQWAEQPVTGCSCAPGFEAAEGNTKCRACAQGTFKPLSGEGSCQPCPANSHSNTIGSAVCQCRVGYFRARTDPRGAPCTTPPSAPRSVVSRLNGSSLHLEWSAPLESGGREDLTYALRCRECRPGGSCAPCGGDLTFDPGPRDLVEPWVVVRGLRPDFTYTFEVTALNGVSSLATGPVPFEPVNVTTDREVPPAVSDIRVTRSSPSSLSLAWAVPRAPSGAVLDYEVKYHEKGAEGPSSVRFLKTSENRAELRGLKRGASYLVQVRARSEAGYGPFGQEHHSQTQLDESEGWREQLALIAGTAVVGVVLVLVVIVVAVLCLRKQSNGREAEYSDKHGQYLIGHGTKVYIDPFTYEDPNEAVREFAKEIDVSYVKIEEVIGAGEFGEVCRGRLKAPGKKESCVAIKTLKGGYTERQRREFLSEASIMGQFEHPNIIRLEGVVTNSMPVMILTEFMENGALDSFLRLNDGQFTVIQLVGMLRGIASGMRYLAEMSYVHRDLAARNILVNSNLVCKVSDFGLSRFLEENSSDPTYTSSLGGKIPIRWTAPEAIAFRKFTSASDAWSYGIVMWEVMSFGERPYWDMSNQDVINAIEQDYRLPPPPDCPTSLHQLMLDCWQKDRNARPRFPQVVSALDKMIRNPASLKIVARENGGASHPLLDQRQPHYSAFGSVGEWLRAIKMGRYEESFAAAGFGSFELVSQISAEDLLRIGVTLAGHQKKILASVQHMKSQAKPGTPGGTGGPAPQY

T7 sequence (Q9UM73 19-1620 C1156Y): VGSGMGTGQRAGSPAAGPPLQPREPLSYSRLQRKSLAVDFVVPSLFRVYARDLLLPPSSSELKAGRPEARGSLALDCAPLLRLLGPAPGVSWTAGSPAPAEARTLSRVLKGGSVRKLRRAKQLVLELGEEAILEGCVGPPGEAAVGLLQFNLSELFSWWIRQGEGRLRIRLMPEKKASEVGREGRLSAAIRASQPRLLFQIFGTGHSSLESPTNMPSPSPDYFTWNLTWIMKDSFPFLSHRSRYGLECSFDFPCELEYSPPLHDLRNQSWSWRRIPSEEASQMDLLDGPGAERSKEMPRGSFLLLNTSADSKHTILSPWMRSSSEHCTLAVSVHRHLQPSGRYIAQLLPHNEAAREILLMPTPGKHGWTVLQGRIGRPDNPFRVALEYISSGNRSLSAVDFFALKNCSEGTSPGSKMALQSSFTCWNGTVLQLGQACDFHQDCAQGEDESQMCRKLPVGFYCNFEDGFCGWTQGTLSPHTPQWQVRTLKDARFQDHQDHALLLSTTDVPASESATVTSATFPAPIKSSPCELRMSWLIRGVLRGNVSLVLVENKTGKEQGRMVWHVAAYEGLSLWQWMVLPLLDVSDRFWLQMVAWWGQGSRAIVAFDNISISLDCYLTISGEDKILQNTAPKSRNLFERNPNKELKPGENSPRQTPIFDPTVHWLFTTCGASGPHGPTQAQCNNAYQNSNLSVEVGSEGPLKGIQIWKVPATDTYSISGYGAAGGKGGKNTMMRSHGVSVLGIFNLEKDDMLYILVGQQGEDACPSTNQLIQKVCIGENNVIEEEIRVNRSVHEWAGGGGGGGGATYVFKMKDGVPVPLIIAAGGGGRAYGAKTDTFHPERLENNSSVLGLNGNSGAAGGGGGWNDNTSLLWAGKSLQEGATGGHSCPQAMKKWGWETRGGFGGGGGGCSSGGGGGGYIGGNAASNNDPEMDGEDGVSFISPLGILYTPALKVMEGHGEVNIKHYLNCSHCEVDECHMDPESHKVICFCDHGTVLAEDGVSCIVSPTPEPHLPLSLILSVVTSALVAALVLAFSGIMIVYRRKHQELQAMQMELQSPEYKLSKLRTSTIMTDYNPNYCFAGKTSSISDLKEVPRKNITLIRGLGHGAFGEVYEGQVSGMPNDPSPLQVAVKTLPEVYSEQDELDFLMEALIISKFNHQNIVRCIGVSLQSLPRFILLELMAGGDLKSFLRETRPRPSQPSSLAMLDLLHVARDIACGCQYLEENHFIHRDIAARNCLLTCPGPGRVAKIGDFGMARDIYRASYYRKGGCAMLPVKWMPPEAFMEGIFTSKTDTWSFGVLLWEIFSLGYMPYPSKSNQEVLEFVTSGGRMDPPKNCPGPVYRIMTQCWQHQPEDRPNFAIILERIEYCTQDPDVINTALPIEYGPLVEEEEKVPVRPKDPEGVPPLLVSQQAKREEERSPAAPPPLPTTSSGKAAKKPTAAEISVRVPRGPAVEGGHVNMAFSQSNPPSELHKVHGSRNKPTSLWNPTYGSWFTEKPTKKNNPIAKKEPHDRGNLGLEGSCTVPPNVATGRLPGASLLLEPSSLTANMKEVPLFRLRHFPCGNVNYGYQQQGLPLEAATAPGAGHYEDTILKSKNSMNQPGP
T3 sequence (Q9UM73 19-1620): as the sequence (Q9UM73 19-1620 C1156Y) above, with Y1138C counted along it
T5 sequence (P54756 25-1037): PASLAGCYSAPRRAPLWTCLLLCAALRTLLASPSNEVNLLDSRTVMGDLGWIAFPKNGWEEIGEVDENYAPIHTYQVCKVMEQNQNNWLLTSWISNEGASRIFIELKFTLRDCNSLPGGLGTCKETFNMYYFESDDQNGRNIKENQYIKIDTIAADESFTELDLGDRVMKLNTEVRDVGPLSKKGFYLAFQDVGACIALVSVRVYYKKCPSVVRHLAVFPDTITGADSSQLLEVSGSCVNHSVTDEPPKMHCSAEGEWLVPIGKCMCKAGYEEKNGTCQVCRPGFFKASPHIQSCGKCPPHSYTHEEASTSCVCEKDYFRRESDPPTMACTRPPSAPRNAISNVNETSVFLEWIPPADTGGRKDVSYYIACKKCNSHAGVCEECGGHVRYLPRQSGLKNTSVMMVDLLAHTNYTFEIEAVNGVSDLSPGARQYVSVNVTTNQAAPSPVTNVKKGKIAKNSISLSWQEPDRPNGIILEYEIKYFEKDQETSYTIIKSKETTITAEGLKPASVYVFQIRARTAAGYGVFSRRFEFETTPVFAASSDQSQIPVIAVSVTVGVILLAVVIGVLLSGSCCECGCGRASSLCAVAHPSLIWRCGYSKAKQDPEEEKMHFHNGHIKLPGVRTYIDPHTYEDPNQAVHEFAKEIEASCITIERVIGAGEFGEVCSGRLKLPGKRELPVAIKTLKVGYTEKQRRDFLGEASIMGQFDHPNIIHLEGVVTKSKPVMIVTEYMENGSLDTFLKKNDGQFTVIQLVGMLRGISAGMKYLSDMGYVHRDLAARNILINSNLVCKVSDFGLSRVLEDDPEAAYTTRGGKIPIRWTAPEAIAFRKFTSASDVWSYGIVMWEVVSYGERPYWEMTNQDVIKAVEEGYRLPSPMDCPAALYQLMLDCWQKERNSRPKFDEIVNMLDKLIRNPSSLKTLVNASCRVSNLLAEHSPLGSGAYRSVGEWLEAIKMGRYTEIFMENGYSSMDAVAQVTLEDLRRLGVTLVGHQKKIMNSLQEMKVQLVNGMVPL
T6 sequence (P07948 whole entry): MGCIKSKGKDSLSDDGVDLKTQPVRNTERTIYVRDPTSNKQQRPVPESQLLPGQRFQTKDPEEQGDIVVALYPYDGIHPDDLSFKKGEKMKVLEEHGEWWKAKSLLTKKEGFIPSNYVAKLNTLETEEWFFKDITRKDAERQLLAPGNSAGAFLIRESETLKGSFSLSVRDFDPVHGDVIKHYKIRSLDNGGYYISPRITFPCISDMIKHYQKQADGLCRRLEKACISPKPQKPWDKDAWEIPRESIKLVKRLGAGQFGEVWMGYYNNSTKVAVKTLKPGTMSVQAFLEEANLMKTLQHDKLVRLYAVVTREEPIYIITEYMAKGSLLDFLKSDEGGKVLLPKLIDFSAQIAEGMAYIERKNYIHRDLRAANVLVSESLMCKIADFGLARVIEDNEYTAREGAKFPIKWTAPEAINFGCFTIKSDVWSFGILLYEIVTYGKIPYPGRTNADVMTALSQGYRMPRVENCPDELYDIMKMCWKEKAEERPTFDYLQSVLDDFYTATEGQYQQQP
T2 sequence (Q02763 23-1124): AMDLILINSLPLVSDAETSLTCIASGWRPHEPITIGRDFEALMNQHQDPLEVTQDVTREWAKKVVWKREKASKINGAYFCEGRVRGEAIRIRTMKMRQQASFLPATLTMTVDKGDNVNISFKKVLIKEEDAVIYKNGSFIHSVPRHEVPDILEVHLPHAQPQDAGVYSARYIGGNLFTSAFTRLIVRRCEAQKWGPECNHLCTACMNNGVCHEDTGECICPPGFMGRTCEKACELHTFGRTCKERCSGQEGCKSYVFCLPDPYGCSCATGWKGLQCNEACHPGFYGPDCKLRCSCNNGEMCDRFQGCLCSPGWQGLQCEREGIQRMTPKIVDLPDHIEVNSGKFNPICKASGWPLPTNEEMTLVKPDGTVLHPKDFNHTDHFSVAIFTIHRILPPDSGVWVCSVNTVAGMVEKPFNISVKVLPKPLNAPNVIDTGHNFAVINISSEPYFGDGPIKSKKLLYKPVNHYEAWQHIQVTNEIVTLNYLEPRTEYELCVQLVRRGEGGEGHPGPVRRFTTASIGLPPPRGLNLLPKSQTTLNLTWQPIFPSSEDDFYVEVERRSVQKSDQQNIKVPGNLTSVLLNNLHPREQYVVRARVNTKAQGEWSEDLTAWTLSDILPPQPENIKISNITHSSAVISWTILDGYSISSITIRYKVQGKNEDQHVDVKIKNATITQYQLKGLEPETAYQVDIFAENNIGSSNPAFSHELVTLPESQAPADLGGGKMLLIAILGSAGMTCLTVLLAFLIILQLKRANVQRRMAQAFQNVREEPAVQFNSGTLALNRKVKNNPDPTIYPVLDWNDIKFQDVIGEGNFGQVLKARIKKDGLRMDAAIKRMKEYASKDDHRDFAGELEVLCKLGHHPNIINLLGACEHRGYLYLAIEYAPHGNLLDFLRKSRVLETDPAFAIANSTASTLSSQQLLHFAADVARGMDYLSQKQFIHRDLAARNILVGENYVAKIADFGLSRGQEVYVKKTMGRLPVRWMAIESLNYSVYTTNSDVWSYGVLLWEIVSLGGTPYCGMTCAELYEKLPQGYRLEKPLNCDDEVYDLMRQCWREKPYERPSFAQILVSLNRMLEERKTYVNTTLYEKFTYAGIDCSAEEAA
Chain of JAK3, catalytic domain (795–1124) (P52333 795-1124): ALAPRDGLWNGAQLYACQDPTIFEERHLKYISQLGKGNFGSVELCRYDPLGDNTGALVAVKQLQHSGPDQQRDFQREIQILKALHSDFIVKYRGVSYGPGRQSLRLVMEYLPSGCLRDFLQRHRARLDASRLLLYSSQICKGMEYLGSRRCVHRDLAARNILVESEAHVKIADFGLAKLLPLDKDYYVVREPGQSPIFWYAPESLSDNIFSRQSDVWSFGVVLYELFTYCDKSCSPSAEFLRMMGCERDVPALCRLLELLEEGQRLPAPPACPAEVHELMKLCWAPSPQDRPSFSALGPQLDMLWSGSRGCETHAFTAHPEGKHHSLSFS

Structure (SMILES): CNC(=O)c1cnc(S(C)(=O)=O)nc1N1CCCC(n2nc(-c3ccc(Oc4ccccc4)cc3)c3c(N)ncnc32)C1 (stereo not shown) [Compound 8d, 4-(3-(4-Amino-3-(4-phenoxyphenyl)-1H-pyrazolo[3,4-d]pyrimidin-1-yl)piperidin-1-yl)-N-methyl-2-(methylsulfonyl)pyrimidine-5-carboxamide]
- difference in %Control from compound Ib at 1 µM ([1]; @1000nM): 9%
- remaining binding at 1 µM ([1]; @1000nM, read-out: %Control): 74%
- remaining binding at 1 µM ([1]; read-out: %Control @1000nM): 74%
- remaining binding at 1 µM (TIE2; @1000nM, read-out: %Control): 74%
- remaining binding at 1 µM (TIE2; read-out: %Control @1000nM): 74%
- difference in %Control versus compound Ib at 1 µM (ALK; @1000nM): -11%
- remaining binding at 1 µM (ALK; @1000nM, read-out: %Control): 83%
- remaining binding at 1 µM (ALK; read-out: %Control @1000nM): 83%
- IC50 [2]: > 1000 nM
- remaining binding at 1 µM (VEGFR2; @1000nM, read-out: %Control): 88%
- remaining binding at 1 µM (VEGFR2; read-out: %Control @1000nM): 88%
- difference in %Control from compound Ib at 1 µM (EPHA5; @1000nM): 4%
- remaining binding at 1 µM (EPHA5; @1000nM, read-out: %Control): 100%
- remaining binding at 1 µM (EPHA5; read-out: %Control @1000nM): 100%
- remaining binding at 1 µM (LYN; @1000nM, read-out: %Control): 43%
- remaining binding at 1 µM (LYN; read-out: %Control @1000nM): 43%
- difference in %Control versus compound Ib at 1 µM (ALK(C1156Y); @1000nM): -10%
- remaining binding at 1 µM (ALK(C1156Y); @1000nM, read-out: %Control): 88%
- remaining binding at 1 µM (ALK(C1156Y); read-out: %Control @1000nM): 88%
- difference in %Control from compound Ib at 1 µM (EPHA6; @1000nM): 20%
- remaining binding at 1 µM (EPHA6; @1000nM, read-out: %Control): 97%
- remaining binding at 1 µM (EPHA6; read-out: %Control @1000nM): 97%
- difference in %Control from compound Ib at 1 µM (EPHB4; @1000nM): 0%
- remaining binding at 1 µM (EPHB4; @1000nM, read-out: %Control): 100%
- remaining binding at 1 µM (EPHB4; read-out: %Control @1000nM): 100%
